Patent publication US20260193254A1, “2-OXOQUINAZOLINE CRYSTALLINE FORMS” (IDEAYA Biosciences, Inc., priority 2022, published 2026)
In brackets after ≈: the same amount, converted by molar mass.

What was measured:
[1] = Equilibrium solubility in FeSSIF and FaSSIF; type: physicochemical; details: 24 hours; for Solubility: target concentration 1 mg/mL, HPLC method 1 or 2 (footnote)
Procedure: Solid part and liquid part were separated by filtration. Solubility was measured by HPLC. Solid part (wet cake) was investigated by XRPD.

[2] = Bulk stability of crystalline forms; type: physicochemical; details: for Purity, Bulk (HPLC): Solid state; for Initial purity: before stress, HPLC; for chemical stability and physical stability (bulk stability): stressed under 25° C./92 RH, 40% C/75% RH and 60° C., XRPD and HPLC
Excerpt: (§1) Solids obtained after bulk stability study were characterized by XRPD and HPLC.

[3] = Grinding simulation experiments - wet grinding (granulation); type: physicochemical
Procedure: Water or ethanol was added drop wise to about 20 mg of Form A, Form D, or Form T until solid was wetted sufficiently. Vortex was applied between each addition. Samples were dried under ambient condition for 10 min. Potential form transition and degree of crystallinity were evaluated by XRPD.

[4] = Intrinsic dissolution rate (IDR) evaluation in FaSSIF; type: physicochemical; details: FaSSIF at 37° C.; for XRPD after IDR: disc surface after 120 min; for Concentration detected during IDR test (Comments): for Form V and Form A remains same during the whole process, LOQ for Form T and amorphous form
Procedure: Only one surface of the pellet was exposed (surface area=0.50 cm^2) to 900 mL FaSSIF, the dissolution medium. Temperature of chamber medium was set as 37±0.5° C. Shaft rotation as 100 rpm and sampling time points as 2 min, 5 min, 10 min, 15 min, 20 min, 25 min, 30 min, 35 min, 40 min, 50 min, 60 min, and 120 min. 2 mL sample solution was withdrawn at each time point and centrifuged at 14,000 rpm for 5 min to isolate supernatant. Then concentration of the supernatant was analyzed by HPLC. After 120 min, XRPD of disc surface was measured.

[5] = Hygroscopicity: water sorption and desorption by dynamic vapor sorption (DVS); type: physicochemical
Procedure: In some embodiments, the crystalline form described herein is further characterized by is further characterized by a dynamic vapor sorption (DVS) profile. In some embodiments, a DVS is recorded according to the method as described herein with a cycle of 40-0-95-0-40% RH at 25° C.
Water sorption and desorption behaviors of Form A, Form C, Form D, and Form T were investigated by DVS at 25° C. with a cycle of 40-0-95-0-40% RH. Dm/dt was 0.002. Minimum equilibration time was 60 min. Maximum equilibration time was 360 min. XRPD was measured after DVS test to determine potential form change.

[6] = Grinding simulation experiments - dry grinding; type: physicochemical
Procedure: About 20 mg of Form A, Form D, and Form T were ground manually with a mortar and a pestle for 5 min or 1 min. Potential from transition and degree of crystallinity were evaluated by XRPD.

[7] = Bulk stability of crystalline forms; type: physicochemical; parameters: key: Color A: All No change of color; details: Solid state
Excerpt: as §1

MAT2A enzyme = target: T1, MAT2A enzyme (Homo sapiens, UniProt P31153); assay: Phosphate Sensor Fluorescence Assay; type: biochemical; details: inhibition of MAT2A enzyme
T1 construct: Human MAT2A: Cepter, amino acids 1-395; purchased Cepter clone ID 329, lot 00023-123; clone ID 334, lot 00023-148
Procedure: The ability of the compound of Formula (I) described in Example 1 to inhibit MAT2A enzyme was determined using a Phosphate Sensor Fluorescence Assay described below.
MAT2A enzyme is incubated with a test compound in DMSO or DMSO and its substrates (L-methionine and ATP) in a microtiter plate. The enzymatic reaction is stopped by the addition of Working Phosphate Sensor Mixture. The plate is analyzed for fluorescence at 450 nm. The high control (DMSO with enzyme and its substrates) gives high fluorescence which represents no inhibition of enzymatic activity while the low control (DMSO with MAT2A substrates and no enzyme) gives low fluorescence which represents full inhibition of enzymatic activity. […]
For the assay, a mixture of 1 mM L-methionine/1 mM ATP (2× final pre-stopped concentration) in assay buffer; MAT2A (2× final pre-stopped concentration) in Assay Buffer and Working Phosphate Sensor Mixture (1.5 μM Phosphate Sensor/30 mM EDTA in Assay Buffer, which is 3× final concentrations) were prepared. […] The plate was read for fluorescence at 450 nm after exciting at 430 nm.
Percent inhibition was calculated in Chemical and Biological Information System (CBIS), (ChemInnovation Software Inc.). […]

[8] = Bulk stability of crystalline forms; type: physicochemical; parameters: key: Color A: All No change of color; Color B: Slightly discoloration; details: Solid state, 60° C., tight container, 2 weeks
Excerpt: as §1

[9] = Behavior under compression; type: physicochemical; details: 2 Mpa/2 min, hydraulic press
Procedure: XRPD characterization was performed to investigate polymorphic behavior under compression.

[10] = 25° C./92% RH, open container, 1 week
[11] = 25° C./92% RH, open container, 2 weeks
[12] = 25° C./92% RH, open container, 4 weeks
[13] = 40° C./75% RH, open container, 1 week
[14] = 40° C./75% RH, open container, 2 weeks
[15] = 40° C./75% RH, open container, 4 weeks
[16] = 60° C., tight container, 1 week
[17] = 60° C., tight container, 2 weeks
[18] = 60° C., tight container, 4 weeks

T1 sequence (P31153 whole entry, the tested form may be a part): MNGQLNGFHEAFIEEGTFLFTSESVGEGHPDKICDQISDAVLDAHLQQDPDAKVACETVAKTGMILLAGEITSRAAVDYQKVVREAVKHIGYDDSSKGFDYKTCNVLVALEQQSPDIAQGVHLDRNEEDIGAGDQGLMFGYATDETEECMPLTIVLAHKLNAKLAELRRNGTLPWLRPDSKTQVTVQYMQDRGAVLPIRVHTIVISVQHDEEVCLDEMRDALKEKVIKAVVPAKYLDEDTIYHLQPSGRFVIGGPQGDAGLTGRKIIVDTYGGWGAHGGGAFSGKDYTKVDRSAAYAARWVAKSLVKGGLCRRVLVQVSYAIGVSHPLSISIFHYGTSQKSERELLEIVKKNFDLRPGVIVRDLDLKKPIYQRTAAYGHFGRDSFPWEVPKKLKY

With `Nc1nc(=O)n(-c2ccccc2Cl)c2nc(C(F)(F)F)ccc12` [Form T, 4-Amino-1-(2-chlorophenyl)-7-(trifluoromethyl)pyrido[2,3-d]pyrimidin-2(1H)-one] as the molecule, how does the “XRPD of solid after solubility test” value ([1]; FaSSIF, pH 6.5, 37° C.) read?
The value was “Form T”.

And the “final pH” value ([1]; FaSSIF, pH 6.5, 37° C.)?
The value was 6.5.

What about the Solubility ([1]; FaSSIF, pH 6.5, 37° C.) of the same molecule?
Its Solubility is 80 µg/mL (≈ 235 µM).

And the “XRPD of solid after solubility test” value ([1]; FeSSIF, pH 5.0, 37° C.)?
The value was “Form T”.

What about the “final pH” value ([1]; FeSSIF, pH 5.0, 37° C.) of the same molecule?
Its value is 5.0.

What about the Solubility ([1]; FeSSIF, pH 5.0, 37° C.) of the same molecule?
Its Solubility is 160 µg/mL (≈ 470 µM).

And the “Purity, Bulk (HPLC)” value [2, 10]?
Its value is 99.1%.

What about the “Purity, Bulk (HPLC)” value [2, 11] of the same molecule?
Its value is 99.0%.

And the “Purity, Bulk (HPLC)” value [2, 12]?
The value was 98.9%.

What about the “Purity, Bulk (HPLC)” value [2, 13] of the same molecule?
The value was 98.9%.

And the “Purity, Bulk (HPLC)” value [2, 14]?
The value was 98.7%.

What about the “Purity, Bulk (HPLC)” value [2, 15] of the same molecule?
The value was 98.3%.

What about the “Purity, Bulk (HPLC)” value [2, 16] of the same molecule?
The value was 99.1%.

What about the “Purity, Bulk (HPLC)” value [2, 17] of the same molecule?
The value was 99.0%.

What about the “Purity, Bulk (HPLC)” value [2, 18] of the same molecule?
Its value is 98.7%.

What about the Initial purity [2] of the same molecule?
Its Initial purity is 99.1%.

What about the “chemical stability and physical stability (bulk stability)” value [2] of the same molecule?
The value was “good chemical stability and physical stability”.

And the “XRPD after wet grinding” value ([3]; Water)?
Its value is “No form change”.

And the “form change after granulation with water” value ([3]; wet grinding, XRPD)?
The value was “no form change”.

And the “tolerance to granulation with water” value ([3]; wet grinding, XRPD)?
Its value is “good tolerance”.

What about the “XRPD after IDR” value [4] of the same molecule?
The value was “No form change”.

What about the “Concentration detected during IDR test (Comments)” value [4] of the same molecule?
The value was “<LOQ (0.0003 mg/mL”.

And the hygroscopicity ([5]; DVS at 25° C., cycle 40-0-95-0-40% RH)?
Its hygroscopicity is “slightly hygroscopic”.

What about the “form change after the DVS test” value ([5]; XRPD after DVS) of the same molecule?
The value was “No form change”.

And the “XRPD after dry grinding” value ([6]; Dry grinding for 5 min)?
The value was “substantially amorphous”.

What about the “tolerance to dry grinding” value ([6]; ground manually with mortar and pestle, 5 min or 1 min, XRPD) of the same molecule?
Its value is “poor tolerance”.

And the Color [7, 10]?
Its Color is “A”.

What about the Color [7, 11] of the same molecule?
The Color was “A”.

What about the Color [7, 12] of the same molecule?
The Color was “A”.

And the Color [7, 13]?
Its Color is “A”.

And the Color [7, 14]?
The Color was “A”.

What about the Color [7, 15] of the same molecule?
Its Color is “A”.

And the Color [7, 16]?
The Color was “A”.

What about the Color [7, 17] of the same molecule?
The Color was “A”.

And the Color [7, 18]?
The Color was “A”.

Which IC50 (MAT2A enzyme) does the source give for `Nc1nc(=O)n(-c2ccccc2Cl)c2nc(C(F)(F)F)ccc12` [Formula (I), 4-Amino-1-(2-chlorophenyl)-7-(trifluoromethyl)pyrido[2,3-d]pyrimidin-2(1H)-one] here?
The IC50 was under 200 nM.

Which results are given for `Nc1nc(=O)n(-c2ccccc2Cl)c2nc(C(F)(F)F)ccc12` [substantially amorphous form, 4-Amino-1-(2-chlorophenyl)-7-(trifluoromethyl)pyrido[2,3-d]pyrimidin-2(1H)-one]?
final pH ([1]; FaSSIF, pH 6.5, 37° C.): 6.5; Solubility ([1]; FaSSIF, pH 6.5, 37° C.): 120 µg/mL (≈ 352 µM); final pH ([1]; FeSSIF, pH 5.0, 37° C.): 5.0; Solubility ([1]; FeSSIF, pH 5.0, 37° C.): 230 µg/mL (≈ 675 µM); Purity, Bulk (HPLC) [2, 10]: 98.5%; Purity, Bulk (HPLC) [2, 11]: 98.1%; Purity, Bulk (HPLC) [2, 12]: 97.2%; Purity, Bulk (HPLC) [2, 13]: 97.5%; Purity, Bulk (HPLC) [2, 14]: 96.1%; Purity, Bulk (HPLC) [2, 15]: 93.5%; Purity, Bulk (HPLC) [2, 16]: 98.4%; Purity, Bulk (HPLC) [2, 17]: 97.8%; Purity, Bulk (HPLC) [2, 18]: 97.8%; degradation (bulk stability) ([2]; after exposure to 40° C./75 RH in an open container and 60° C. in a tight container): slight degradation; Initial purity [2]: 98.7%; chemical stability and physical stability (bulk stability) [2]: physically stable; Color [8]: B; XRPD after IDR [4]: No form change; Concentration detected during IDR test (Comments) [4]: <LOQ (0.0008 mg/mL; XRPD after compression [9]: No form change; Color [7, 10]: A; Color [7, 11]: A; Color [7, 12]: A; Color [7, 13]: A; Color [7, 14]: A; Color [7, 15]: A; Color [7, 16]: A; Color [7, 18]: A
